# Results taken from the supplement of paper PMC10307832.
# Compound: CC(C)CCN1c2nc(Nc3cc(F)c(O)c(F)c3)ncc2N(C)C(=O)C1C [BI-D1870] + O=C(c1cc(Cc2n[nH]c(=O)c3ccccc23)ccc1F)N1CCN(C(=O)C2CC2)CC1 [Olaparib] (partner 8 µM)
# Test: relative viability (nuclei count vs DMSO), 5 days (fraction); higher = more cells survive
# Details: first compound 4 µM
# In short: (§1)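 Cells from lung cancer lines were seeded into 1536-well plates and, one day later, dosed by pin tool. Treatments were either a single drug or a fixed dose of an anchor drug with five library-drug doses (not always all listed) in √10 steps. After 5 days, nuclei were stained in a one-step fixation (final 0.05% Triton X-100, 1% formaldehyde, 1 ug/ml Hoechst) and counted on 4× images, and relative viability is the treated-to-vehicle nuclei ratio, as the median of duplicate plates.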
row,Cell Line,relative viability
1,NCI-H1703,0.315
2,NCI-H1993,0.995
3,SW 1573,0.191
4,NCI-H838,0.663
5,LCLC-103H,0.671
6,NCI-H520,0.162
7,NCI-H2126,0.859
8,EMC-BAC-2,0.455
9,NCI-H2085,0.429
10,Calu-6,0.254
11,HCC-366,0.229
12,NCI-H1666,0.72
13,NCI-H596,0.63
14,LK-2,0.71
15,NCI-H2087,0.564
16,NCI-H1648,0.846
17,SK-MES-1,0.19
18,H3255,0.526

row,Cell Line,relative viability
1,COR-L23,0.245
2,COR-L 105,0.678
3,IA-LM,0.506
4,LOU-NH91,0.669
5,ChaGo-K-1,0.303
6,NCI-H2170,0.448
7,NCI-H2405,0.814
8,A549,0.399
9,NCI-H522,0.62
10,SW 900,0.964
11,NCI-H2009,0.583
12,NCI-H661,0.58
13,SK-LU-1,0.35
14,NCI-H1299,0.545
15,CAL-12T,0.372
16,NCI-H2228,0.314
17,NCI-H2023,0.252

# Compound: O=c1ncccn1[C@@H]1O[C@H](CO)[C@@H](O)[C@H]1O [Zebularine] + CS(=O)(=O)N1CCN(Cc2cc3nc(-c4cccc5[nH]ncc45)nc(N4CCOCC4)c3s2)CC1 [Pictilisib] (partner 1 µM)
# Test: as above
# Details: first compound 1 µM
# In short: as §1
row,Cell Line,relative viability
1,NCI-H727,0.385
2,NCI-H1650,0.72
3,EBC-1,0.338
4,NCI-H1703,0.267
5,NCI-H1993,0.962
6,SW 1573,0.576
7,NCI-H838,0.463
8,LCLC-103H,0.564
9,NCI-H520,0.362
10,NCI-H2126,0.544
11,EMC-BAC-2,0.536
12,NCI-H2085,0.435
13,Calu-6,0.995
14,HCC-366,0.16
15,NCI-H1666,0.472
16,NCI-H596,0.304
17,LK-2,0.617
18,NCI-H2087,0.92

row,Cell Line,relative viability
1,SK-MES-1,0.375
2,H3255,0.458
3,COR-L23,0.926
4,COR-L 105,0.388
5,IA-LM,0.394
6,LOU-NH91,0.52
7,ChaGo-K-1,0.896
8,NCI-H2170,0.385
9,NCI-H2405,0.476
10,A549,0.626
11,NCI-H2009,0.838
12,NCI-H661,0.413
13,SK-LU-1,0.63
14,NCI-H1299,0.75
15,CAL-12T,0.509
16,NCI-H2228,0.563
17,NCI-H2023,0.262
18,NCI-H1563,0.645

# Same assay, conditions: first compound 3.162 µM
row,Cell Line,relative viability
1,NCI-H727,0.22
2,NCI-H1650,0.447
3,EBC-1,0.348
4,NCI-H1993,0.8
5,SW 1573,0.505
6,NCI-H838,0.457
7,LCLC-103H,0.603
8,NCI-H520,0.308
9,NCI-H2126,0.434
10,EMC-BAC-2,0.562
11,NCI-H2085,0.411
12,Calu-6,0.898
13,HCC-366,0.133
14,NCI-H1666,0.477
15,NCI-H596,0.373
16,LK-2,0.747
17,NCI-H2087,0.703
18,SK-MES-1,0.399

row,Cell Line,relative viability
1,H3255,0.518
2,COR-L23,0.776
3,COR-L 105,0.381
4,IA-LM,0.325
5,LOU-NH91,0.471
6,ChaGo-K-1,0.557
7,NCI-H2170,0.31
8,NCI-H2405,0.474
9,A549,0.482
10,NCI-H2009,0.782
11,NCI-H661,0.427
12,SK-LU-1,0.495
13,NCI-H1299,0.761
14,CAL-12T,0.398
15,NCI-H2228,0.416
16,NCI-H2023,0.272
17,NCI-H1563,0.607

# Same assay, conditions: first compound 10 µM
row,Cell Line,relative viability
1,NCI-H727,0.529
2,EBC-1,0.311
3,NCI-H838,0.422
4,LCLC-103H,0.513
5,NCI-H520,0.204
6,NCI-H2126,0.535
7,EMC-BAC-2,0.493
8,NCI-H2085,0.444
9,Calu-6,0.467
10,HCC-366,0.119
11,NCI-H1666,0.383
12,NCI-H596,0.361
13,LK-2,0.266
14,NCI-H2087,0.583
15,SK-MES-1,0.294
16,COR-L23,0.291
17,COR-L 105,0.373
18,LOU-NH91,0.498
19,ChaGo-K-1,0.466
20,NCI-H2170,0.348
21,NCI-H2405,0.399
22,NCI-H2009,0.614
23,NCI-H661,0.328
24,SK-LU-1,0.393
25,NCI-H1299,0.543
26,NCI-H2228,0.228
27,NCI-H2023,0.215
28,NCI-H1563,0.636

# Same assay, conditions: first compound 31.62 µM
row,Cell Line,relative viability
1,NCI-H727,0.373
2,NCI-H1650,0.839
3,EBC-1,0.387
4,NCI-H1703,0.265
5,NCI-H1993,0.89
6,SW 1573,0.471
7,NCI-H838,0.51
8,LCLC-103H,0.612
9,NCI-H520,0.268
10,NCI-H2126,0.495
11,EMC-BAC-2,0.606
12,NCI-H2085,0.461
13,Calu-6,0.859
14,HCC-366,0.177
15,NCI-H1666,0.506
16,NCI-H596,0.42
17,LK-2,0.383
18,NCI-H2087,0.752
19,SK-MES-1,0.346
20,H3255,0.461
21,COR-L23,0.287
22,COR-L 105,0.464
23,IA-LM,0.37
24,LOU-NH91,0.505
25,ChaGo-K-1,0.447
